Source: US10513567B2, “Polycations and methods of making and using thereof” (Georgia Tech Research Corporation, priority 2016, dated 2019)

Assay: Fragmentation (hydrolysis) of WCL pyridine adducts and oligocations in deuterated aqueous buffer followed by 1H NMR
Assay type: physicochemical
Procedure: The fragmentation of cationic adducts was followed by ^1H NMR in deuterated buffer, with the relative concentration of each species established by integration of unique resonances. Each adduct in Table 3 and Table 4 was thus examined in three independent runs.
Each adduct dinitrate was isolated, characterized, and heated at 50° C. in deuterated buffer; following the disappearance of the adduct by NMR, first-order rate constants of fragmentation were obtained.
Using the conditions of Table 4, three additional oligocations were prepared from the bis(pyridine) linkers as shown in Table 5. […] The stabilities of these compounds toward fragmentation under aqueous conditions were assessed by NMR in deuterated buffer, following the disappearance of the thiabicyclononane C—H resonance adjacent to the pyridine group (position g in FIG. 14) and the appearance of the corresponding resonance (4.3 ppm) for the diol product 4 (FIG. 6).

Row | Compound | kfrag, pseudo first order fragmentation (50° C., deuterated buffer) | kfrag, pseudo first order fragmentation (37° C.) | krel (37° C., relative to 5i) | krel (50° C., relative to 5e)
1 | COC(=O)c1ccc[n+](C2CCC3SC2CCC3[n+]2cccc(C(=O)OC)c2)c1.O=[N+]([O-])[O-].O=[N+]([O-])[O-] (centres unmarked) [Compound 5b, 2,6-di-3-methoxycarbonylpyridinium-9-thiabicyclo[3.3.1]nonane dinitrate] | (3.03 ± 0.38) × 10^−2 h^−1 |  |  | 
2 | COC(=O)c1cc[n+](C2CCC3SC2CCC3[n+]2ccc(C(=O)OC)cc2)cc1.O=[N+]([O-])[O-].O=[N+]([O-])[O-] (centres unmarked) [Compound 5c, 2,6-di-4-methoxycarbonylpyridinium-9-thiabicyclo[3.3.1]nonane dinitrate] | (3.66 ± 0.33) × 10^−2 h^−1 | (0.16 ± 0.01) × 10^−2 h^−1 | 0.3 | 
3 | NC(=O)c1ccc[n+](C2CCC3SC2CCC3[n+]2cccc(C(N)=O)c2)c1.O=[N+]([O-])[O-].O=[N+]([O-])[O-] (centres unmarked) [Compound 5d, 2,6-di-3-carbamylpyridinium-9-thiabicyclo[3.3.1]nonane dinitrate] | (3.18 ± 0.32) × 10^−2 h^−1 |  |  | 
4 | NC(=O)c1cc[n+](C2CCC3SC2CCC3[n+]2ccc(C(N)=O)cc2)cc1.O=[N+]([O-])[O-].O=[N+]([O-])[O-] (centres unmarked) [Compound 5e, 2,6-di-4-carbamylpyridinium-9-thiabicyclo[3.3.1]nonane dinitrate] | (1.62 ± 0.10) × 10^−2 h^−1 |  |  | 1.00
5 | Brc1ccc[n+](C2CCC3SC2CCC3[n+]2cccc(Br)c2)c1.O=[N+]([O-])[O-].O=[N+]([O-])[O-] (centres unmarked) [Compound 5f, 2,6-di-3-bromopyridinium-9-thiabicyclo[3.3.1]nonane dinitrate] | (6.59 ± 0.58) × 10^−2 h^−1 |  |  | 
6 | FC(F)(F)c1ccc[n+](C2CCC3SC2CCC3[n+]2cccc(C(F)(F)F)c2)c1.O=[N+]([O-])[O-].O=[N+]([O-])[O-] (centres unmarked) [Compound 5g, 2,6-di-3-trifluoromethylpyridinium-9-thiabicyclo[3.3.1]nonane dinitrate] | (74.8 ± 5.4) × 10^−2 h^−1 | (5.87 ± 0.71) × 10^−2 h^−1 | 11 | 
7 | N#Cc1ccc[n+](C2CCC3SC2CCC3[n+]2cccc(C#N)c2)c1.O=[N+]([O-])[O-].O=[N+]([O-])[O-] (centres unmarked) [Compound 5h, 2,6-di-3-cyanopyridinium-9-thiabicyclo[3.3.1]nonane dinitrate] | (10.8 ± 0.98) × 10^−2 h^−1 | (1.14 ± 0.16) × 10^−2 h^−1 | 2.1 | 
8 | COc1cc(Br)c[n+](C2CCC3SC2CCC3[n+]2cc(Br)cc(OC)c2)c1.O=[N+]([O-])[O-].O=[N+]([O-])[O-] (centres unmarked) [Compound 5i, 2,6-di-3-bromo-5-methoxylpyridinium-9-thiabicyclo[3.3.1]nonane dinitrate] | (7.51 ± 0.53) × 10^−2 h^−1 | (0.55 ± 0.04) × 10^−2 h^−1 | 1 | 
9 | NC(=O)c1cc(Br)c[n+](C2CCC3SC2CCC3[n+]2cc(Br)cc(C(N)=O)c2)c1.O=S(=O)([O-])C(F)(F)F.O=S(=O)([O-])C(F)(F)F (centres unmarked) [Compound 5j, 2,6-di-3-bromo-5-carbamylpyridinium-9-thiabicyclo[3.3.1]nonane ditriflate] |  | (9.34 ± 0.87) × 10^−2 h^−1 | 17 | 
10 | COC(=O)c1cc(C(=O)OC)c[n+](C2CCC3SC2CCC3[n+]2cc(C(=O)OC)cc(C(=O)OC)c2)c1.O=S(=O)([O-])C(F)(F)F.O=S(=O)([O-])C(F)(F)F (centres unmarked) [Compound 5k, 2,6-di-3,5-dimethoxycarbonylpyridinium-9-thiabicyclo[3.3.1]nonane ditriflate] |  | (11.9 ± 1.13) × 10^−2 h^−1 | 22 | 
11 | COC(=O)c1cc(Br)c[n+](C2CCC3SC2CCC3[n+]2cc(Br)cc(C(=O)OC)c2)c1.O=S(=O)([O-])C(F)(F)F.O=S(=O)([O-])C(F)(F)F (centres unmarked) [Compound 5l, 2,6-di-3-bromo-5-methoxycarbonylpyridinium-9-thiabicyclo[3.3.1]nonane ditriflate] |  | (10.9 ± 1.81) × 10^−2 h^−1 | 20 | 
